{"source": "patent US10959993B2", "about": "“Combination of Bcl-2 inhibitor and MEK inhibitor for the treatment of cancer” (Genentech, Inc., priority 2015, dated 2021)", "key": {"AML cell lines [1]": {"system": "AML cell lines", "test": "Reverse phase protein array (RPPA) of sensitive v. resistant cell lines", "assay_type": "cell-based", "set-up": "p16INK4a Mean. Res / p16INK4a Mean. Sens / p53 Mean. Res / p53 Mean. Sens / Bax Mean. Res / Bax Mean. Sens / Bim Mean. Res / Bim Mean. Sens / bRaf (T401) Mean. Res / bRaf (T401) Mean. Sens / Bcl-2 Mean. Res / Bcl-2 Mean. Sens: unit not given here", "experimental": "(§1) Representative proteins that are differentially expressed between combination-sensitive and combination-resistant cells were shown. (FIG. 3E) The Bcl-2:BIM complex was measured by the MSD ELISA assay in AML cell lines, untreated, treated with venetoclax alone, treated with cobimetinib alone, or treated with cobimetinib/venetoclax at 1×IC50 values for 4 hrs.\n(§2) Ongoing analysis of pharmacodynamic markers include transcriptome assessment by RNA sequencing, functional proteomics by reverse phase protein array (RPPA), and quantification of Bcl-2:BIM and MCL-1:BIM complexes using the electrochemiluminescent ELISA assay (Meso Scale Discovery, MSD-ELISA). RPPA is a high-throughput technology that performs protein assays on thousands of samples simultaneously. This protein array platform measures levels of protein expression, as well as protein modifications such as phosphorylation."}, "OCI-AML3/Luc/GFP cells": {"system": "OCI-AML3/Luc/GFP cells", "test": "OCI-AML3/Luc/GFP AML model in NSG mice", "assay_type": "in vivo", "details": "compared to controls, more prominently in cobimetinib single agent and co-treated mice", "experimental": "(§3) OCI-AML3/Luc/GFP cells (1×10^6 per mouse) were injected intravenously into NSG mice. (FIG. 5A) The luciferase intensity was quantified by serial bioluminescence imaging from 8 representative mice from 4 groups at week 5 post injection. (FIG. 5B) Overall survival rate in each group was estimated by the Kaplan-Meier method. 1×10^6 MOLM13-luci-GFP cells were injected into NSGS mice. Leukemia engraftment was confirmed on day 3 using Bioluminescence imaging (BLI). Mice were orally dosed daily with cobimetinib (10 mg/kg) or venetoclax (100 mg/kg) or in combination for 14 days. Luciferase intensity was shown on day 17 (FIG. 5C). Human CD45 engraftment in BM and spleen was determined by CyTOF. (FIG. 5D). The viable cell count was measured using Vi-Cell. (FIG. 5E). * *P: 0.01, ***P: 0.001.\n(§4) We next investigated signaling patterns and Bcl-2 family protein expression in AML stem/progenitor cells using a 34-antibody panel and time-of-flight mass cytometry (CyTOF). CyTOF is a variation of flow cytometry in which antibodies are labeled with heavy metal ion tags rather than fluorochromes. Readout is by time-of-flight mass spectrometry. This allows for the combination of many more antibody specificities in single samples, without significant spillover between channels. […]"}, "[2]": {"system": "AML stem/progenitor cells from primary AML", "test": "Mass cytometry (CyTOF) of intracellular signaling proteins", "assay_type": "cell-based", "experimental": "Mononuclear cells from primary AML were treated with cobimetinib at 1.0 μM for 2 hrs followed by 10 minutes plus or minus stimulation with G-CSF (100 ng/ml). The SPADE tree was generated using markers including CD7, CD117, CD123, CD64, CD34, CD26, CD45, TIM3, CD33, CD19, CD56, CD2, CD15, CD41, CD38, CD166, CD3, CD90, CD11b, CD135 and HLA-DR. FIG. 4A depicts representative markers from among those markers tested. The grey-scale color represents the expression levels of each indicated protein. (FIG. 4A) Bcl-2 family members at baseline in the gated stem/progenitor AML cell populations (AML4295468: CD34+CD38+CD123+CD33+; AML 4366894: CD34+CD38-CD123+CD33+). (FIG. 4B) The median intensity of each protein in the gated cell populations mentioned above. (FIG. 4C) The intracellular signaling protein activation in the gated populations mentioned above.\nWe next investigated signaling patterns and Bcl-2 family protein expression in AML stem/progenitor cells using a 34-antibody panel and time-of-flight mass cytometry (CyTOF). CyTOF is a variation of flow cytometry in which antibodies are labeled with heavy metal ion tags rather than fluorochromes. Readout is by time-of-flight mass spectrometry. This allows for the combination of many more antibody specificities in single samples, without significant spillover between channels. […] (FIG. 4A). […] To test the efficacy of both compounds in vivo, we injected NSG mice with genetically engineered OCI-AML3/Luc/GFP cells. […] (FIGS. 5A and 5B). To further explore the anti-leukemia efficacy of both compounds, we injected NSGS mice with genetically engineered […] cells."}, "Bcl-2:BIM complex": {"biological_target": "T1, Bcl-2:BIM complex (Homo sapiens, UniProt P10415)", "T1 construct": "endogenous in cells; host or cells: AML cell lines (OCI-AML3 is the only one named for this read-out)", "T1 sequence (P10415 whole entry, one chain of several)": "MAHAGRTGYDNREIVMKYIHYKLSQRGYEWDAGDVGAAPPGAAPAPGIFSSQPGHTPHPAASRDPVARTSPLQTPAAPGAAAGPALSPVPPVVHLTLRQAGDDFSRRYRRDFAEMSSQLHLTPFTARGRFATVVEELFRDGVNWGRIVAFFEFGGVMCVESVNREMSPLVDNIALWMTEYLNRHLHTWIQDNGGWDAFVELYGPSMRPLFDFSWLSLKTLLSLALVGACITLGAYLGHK", "test": "MSD ELISA of Bcl-2:BIM complex", "assay_type": "cell-based", "details": "1×IC50, 4 hrs, preliminary MSD data", "experimental": "as §1, §2\nRepresentative proteins that are differentially expressed in sensitive and resistant cell lines to the combination. (FIGS. 3A, 3B, 3C, and 3D). […] (FIG. 3E)."}, "AML cell lines [3]": {"system": "AML cell lines", "test": "CellTiter-Glo in vitro cytotoxicity / growth inhibition, 72 hrs", "assay_type": "cell-based", "details": "MOLM14, OCI-AML3, NB4 and THP1", "protocol": "(FIG. 1A) The AML cell lines were treated with cobimetinib or venetoclax at 0.001, 0.01, 0.1 and 1.0 μM for 72 hrs. Calcusyn software was used to calculate the IC50 values and combination index (CI) based on the luminescent intensity that correlated with number of viable cells determined by the CellTiter-Glo assay.\nThe activity of 4-(4-{[2-(4-chlorophenyl)-4,4-dimethylcyclohex-1-en-1-yl]methyl}piperazin-1-yl)-N-({3-nitro-4-[(tetrahydro-2H-pyran-4-ylmethyl)amino]phenyl}sulfonyl)-2-(1H-pyrrolo[2,3-b]pyridin-5-yloxy)benzamide (ABT-199, or venetoclax) and [3,4-Difluoro-2-(2-fluoro-4-iodoanilino)phenyl]{3-hydroxy-3-[(2S)-piperidin-2-yl]azetidin-1-yl}methanone (cobimetinib) was examined in a panel of myeloid leukemia cell lines with diverse genetic alterations."}, "MOLM13-luci-GFP cells": {"system": "MOLM13-luci-GFP cells", "test": "MOLM13-luci-GFP AML model in NSGS mice", "assay_type": "in vivo", "details": "cobimetinib 10 mg/kg, venetoclax 100 mg/kg orally daily for 14 days, compared to controls, more prominently in venetoclax and co-treated mice", "experimental": "as §3, §4"}, "primary AML blasts": {"system": "primary AML blasts", "test": "Long-term culture of primary AML blasts: apoptosis and growth inhibition by flow cytometry", "assay_type": "cell-based", "details": "AML 4366894", "protocol": "(FIG. 2A) Primary AML peripheral blood mononuclear cells were cultured in serum-Free Expansion Medium (SFEM) supplemented with BIT 9500 Serum Substitute and cytokines including stem cell factor (100 ng/ml), Flt3 ligand (50 ng/ml), IL-3 (20 ng/ml) and G-CSF (20 ng/ml) as well as SRI (1 μM). After culture for 5 days, cells were stained with CD45-PE, Annexin-V-APC and DAPI−. The apoptotic leukemia blasts (CD45dimAnnexin-V+) were determined by flow cytometry. Results were expressed as percentage of specific apoptosis calculated by the formula: 100×(% apoptosis of treated cells−% apoptosis of control cells)/(100−% apoptosis of control cells), or % growth inhibition of control using the viable cell counts determined by Annexin-/DAPI. […] MNCs isolated from patients with AML (100,000) or healthy donors (50,000) were plated in methylcellulose medium (1 mL/well; Cat. 04435; [sequence] Technologies Inc., Vancouver, BC, Canada) in triplicate per condition. Colonies were scored after 2 weeks of culture."}, "[4]": {"details": "cell lines resistant to cobimetinib"}, "[5]": {"details": "cell lines sensitive to cobimetinib"}, "[6]": {"details": "cell lines resistant to venetoclax"}, "[7]": {"details": "cell lines sensitive to venetoclax"}}, "data": [{"smiles": "O=C(c1ccc(F)c(F)c1Nc1ccc(I)cc1F)N1CC(O)([C@@H]2CCCCN2)C1", "note": "[cobimetinib, [3,4-difluoro-2-(2-fluoro-4-iodoanilino)phenyl]{3-hydroxy-3-[(2S)-piperidin-2-yl]azetidin-1-yl}methanone]", "values": [{"measurement": "Bax Mean. Res", "setting": "AML cell lines [1]; [4]", "value": 1.010}, {"measurement": "Bim Mean. Res", "setting": "AML cell lines [1]; [4]", "value": 0.893}, {"measurement": "ERK 1/2 (T202/Y204) Mean. Res", "setting": "AML cell lines [1]; [4]", "value": 1.073}, {"measurement": "FLT3 (Y589/591) Mean. Res", "setting": "AML cell lines [1]; [4]", "value": 0.948}, {"measurement": "PTEN (S380) Mean. Res", "setting": "AML cell lines [1]; [4]", "value": 1.049}, {"measurement": "PTEN Mean. Res", "setting": "AML cell lines [1]; [4]", "value": 1.013}, {"measurement": "RSK3 (T356/S360) Mean. Res", "setting": "AML cell lines [1]; [4]", "value": 0.859}, {"measurement": "S6 (S235/236) Mean. Res", "setting": "AML cell lines [1]; [4]", "value": 0.748}, {"measurement": "p16INK4a Mean. Res", "setting": "AML cell lines [1]; [4]", "value": 2.220}, {"measurement": "p38MAP (T180/Y182) Mean. Res", "setting": "AML cell lines [1]; [4]", "value": 0.983}, {"measurement": "p53 Mean. Res", "setting": "AML cell lines [1]; [4]", "value": 0.939}, {"measurement": "Bax Mean. Sens", "setting": "AML cell lines [1]; [5]", "value": 1.307}, {"measurement": "Bim Mean. Sens", "setting": "AML cell lines [1]; [5]", "value": 1.175}, {"measurement": "ERK 1/2 (T202/Y204) Mean. Sens", "setting": "AML cell lines [1]; [5]", "value": 1.988}, {"measurement": "FLT3 (Y589/591) Mean. Sens", "setting": "AML cell lines [1]; [5]", "value": 1.256}, {"measurement": "PTEN (S380) Mean. Sens", "setting": "AML cell lines [1]; [5]", "value": 1.335}, {"measurement": "PTEN Mean. Sens", "setting": "AML cell lines [1]; [5]", "value": 1.361}, {"measurement": "RSK3 (T356/S360) Mean. Sens", "setting": "AML cell lines [1]; [5]", "value": 1.495}, {"measurement": "S6 (S235/236) Mean. Sens", "setting": "AML cell lines [1]; [5]", "value": 1.174}, {"measurement": "p16INK4a Mean. Sens", "setting": "AML cell lines [1]; [5]", "value": 1.184}, {"measurement": "p38MAP (T180/Y182) Mean. Sens", "setting": "AML cell lines [1]; [5]", "value": 1.275}, {"measurement": "p53 Mean. Sens", "setting": "AML cell lines [1]; [5]", "value": 1.373}, {"measurement": "leukemia burden by bioluminescent imaging (BLI)", "setting": "OCI-AML3/Luc/GFP cells", "value": "significantly reduced leukemia burden"}, {"measurement": "G-CSF-evoked p-STAT3/5", "setting": "[2]; AML 4295468, 1.0 μM for 2 hrs", "value": "only slightly reduced"}, {"measurement": "SCF-induced p-AKT", "setting": "[2]; AML 4295468, 1.0 μM for 2 hrs", "value": "only slightly reduced"}, {"measurement": "basal and G-CSF- or SCF-stimulated p-ERK", "setting": "[2]; AML 4295468, 1.0 μM for 2 hrs", "value": "efficiently down-regulated"}, {"measurement": "G-CSF-induced p-STAT3/5", "setting": "[2]; AML 4366894, 1.0 μM for 2 hrs", "value": "not significantly changed"}, {"measurement": "p-ERK", "setting": "[2]; AML 4366894, 1.0 μM for 2 hrs", "value": "also reduced"}, {"measurement": "phosphorylation of STATS pathway", "setting": "[2]; primary AML, 1.0 μM for 2 hrs", "value": "increased phosphorylation"}, {"measurement": "Bcl-2:BIM complex", "setting": "Bcl-2:BIM complex; AML cell lines", "value": "but not cobimetinib disrupted"}, {"measurement": "Bcl-2:BIM complex", "setting": "Bcl-2:BIM complex; OCI-AML3 cells", "value": "accumulated"}]}, {"smiles": "CC1(C)CCC(CN2CCN(c3ccc(C(=O)NS(=O)(=O)c4ccc(NCC5CCOCC5)c([N+](=O)[O-])c4)c(Oc4cnc5[nH]ccc5c4)c3)CC2)=C(c2ccc(Cl)cc2)C1", "note": "[venetoclax, 4-(4-{[2-(4-chlorophenyl)-4,4-dimethylcyclohex-1-en-1-yl]methyl}piperazin-1-yl)-N-({3-nitro-4-[(tetrahydro-2H-pyran-4-ylmethyl)amino]phenyl}sulfonyl)-2-(1H-pyrrolo[2,3-b]pyridin-5-yloxy)benzamide]", "values": [{"measurement": "Bax Mean. Res", "setting": "AML cell lines [1]; [6]", "value": 0.958}, {"measurement": "Bcl-2 Mean. Res", "setting": "AML cell lines [1]; [6]", "value": 0.817}, {"measurement": "Bim Mean. Res", "setting": "AML cell lines [1]; [6]", "value": 1.143}, {"measurement": "PTEN (S380) Mean. Res", "setting": "AML cell lines [1]; [6]", "value": 0.839}, {"measurement": "PTEN Mean. Res", "setting": "AML cell lines [1]; [6]", "value": 0.704}, {"measurement": "S6 (S240/244) Mean. Res", "setting": "AML cell lines [1]; [6]", "value": 1.918}, {"measurement": "bRaf (T401) Mean. Res", "setting": "AML cell lines [1]; [6]", "value": 1.263}, {"measurement": "p16INK4a Mean. Res", "setting": "AML cell lines [1]; [6]", "value": 1.989}, {"measurement": "Bax Mean. Sens", "setting": "AML cell lines [1]; [7]", "value": 1.227}, {"measurement": "Bcl-2 Mean. Sens", "setting": "AML cell lines [1]; [7]", "value": 1.081}, {"measurement": "Bim Mean. Sens", "setting": "AML cell lines [1]; [7]", "value": 0.811}, {"measurement": "PTEN (S380) Mean. Sens", "setting": "AML cell lines [1]; [7]", "value": 1.369}, {"measurement": "PTEN Mean. Sens", "setting": "AML cell lines [1]; [7]", "value": 1.495}, {"measurement": "S6 (S240/244) Mean. Sens", "setting": "AML cell lines [1]; [7]", "value": 1.571}, {"measurement": "bRaf (T401) Mean. Sens", "setting": "AML cell lines [1]; [7]", "value": 0.927}, {"measurement": "p16INK4a Mean. Sens", "setting": "AML cell lines [1]; [7]", "value": 1.593}, {"measurement": "sensitivity of cell lines to single agent", "setting": "AML cell lines [3]", "value": "resistant"}, {"measurement": "leukemia burden by bioluminescent imaging", "setting": "MOLM13-luci-GFP cells", "value": "significantly reduced leukemia burden"}, {"measurement": "sensitivity of primary AML sample", "setting": "primary AML blasts", "value": "resistant"}, {"measurement": "Bcl-2:BIM complex", "setting": "Bcl-2:BIM complex; AML cell lines", "value": "disrupted by venetoclax in most cell lines"}]}]}
